Where two headings read alike, the source gives them in different places.
Key:
Pept1 [1] = target: T1, Pept1 (Mus musculus, UniProt Q9JIP7); assay: Competition assay using radiolabeled Gly-Sar, murine small intestinal organoids (wild type and Pept1 knockout); format: in vitro ADME; conditions: 13mM cyclic hexapeptide (solubilized in DMSO) versus 5mM Gly-Sar (14C tracer 1mM); organoids from wild type and Pept1-deficient mice; HEPES-saline buffer pH 6.5, 37 °C; liquid scintillation; n = 5–6; Figure 2G
T1 construct: endogenous in cells; host or cells: murine small intestinal organoids (C57BL/6 wild type; Pept1-/- organoids as control)
T1 sequence (Q9JIP7 1-709): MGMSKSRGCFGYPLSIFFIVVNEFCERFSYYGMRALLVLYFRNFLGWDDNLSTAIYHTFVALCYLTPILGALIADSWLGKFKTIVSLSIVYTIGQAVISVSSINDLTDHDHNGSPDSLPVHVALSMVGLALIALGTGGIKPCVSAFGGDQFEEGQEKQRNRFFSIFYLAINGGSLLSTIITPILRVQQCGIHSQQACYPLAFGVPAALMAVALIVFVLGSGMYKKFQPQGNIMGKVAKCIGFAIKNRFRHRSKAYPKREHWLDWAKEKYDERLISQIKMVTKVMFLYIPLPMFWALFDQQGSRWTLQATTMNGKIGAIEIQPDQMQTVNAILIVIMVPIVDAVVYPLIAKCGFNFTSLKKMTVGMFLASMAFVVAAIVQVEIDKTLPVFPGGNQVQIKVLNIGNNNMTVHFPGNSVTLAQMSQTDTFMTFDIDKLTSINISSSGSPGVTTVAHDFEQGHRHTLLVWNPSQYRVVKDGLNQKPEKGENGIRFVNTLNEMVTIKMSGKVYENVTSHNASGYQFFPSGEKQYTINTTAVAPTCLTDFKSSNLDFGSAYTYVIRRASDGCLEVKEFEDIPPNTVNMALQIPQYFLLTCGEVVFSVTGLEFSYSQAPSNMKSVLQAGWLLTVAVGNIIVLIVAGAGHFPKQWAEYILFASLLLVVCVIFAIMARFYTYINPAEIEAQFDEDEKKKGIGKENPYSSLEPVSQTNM
Experimental: (§1) Intestinal organoids – Transport & Metabolism […]
(§2) addition of fructose. Following incubation, substrate/inhibitor solutions were removed from intact […]
centrifuged (300g, 10min). For “broken up” organoids, dissociated organoids were centrifuged (300g, 3min) and washed three times with PBS. During these steps, PBS for washing contained glucose and […]
3 ml of Bioscint® Scintillation […]
organoids was quantified using a liquid scintillation counter (PerkinElmer). Residual amounts of all […]
in dissolved organoids derived from the ileum.
(§3) 1.7. Peptide and drug transport studies
The protocol for peptide and
(American Radiolabeled Chemicals). Final substrate concentrations used were: 5mM Gly-Sar […]
Weinmüller and Horst Kessler, and solubilized in DMSO. Peptide transporter studies were performed […]
(§4) 1.8. Imaging of intracellular acidification
(§5) 100µM Amilorid, and 50µM S1611 (Sanofi Aventis). Image series were captured using a Leica […]
(§6) Calculations and imaging data […]
(§7) intestinal Wt organoids or in human duodenal organoids.

Caco-2 = conditions: cited from earlier work
Source text: (§8) As mentioned before, peptide transporters also play a role in drug uptake, including peptidomimetics. […] For example, peptidomimetics have been designed for cancer therapy, e.g., to induce apoptosis ([Walensky et al., 2004]), sensitize cancer cells to chemotherapeu ...

[2] = humans; ref Becker et al., 2015; cited from earlier work
Source text: as §8

human duodenal organoids [3] = assay: Live-cell imaging of intracellular acidification (BCECF-AM), human organoids; format: cell-based; conditions: BCECF-AM 1μM, ratio F(λex490nm)/F(λex450nm); 50mM Gly-Sar, 50mM Gly-Gly, 5mM Cefadroxil, 40µM CCCP; 50mM glucose, 50mM fructose as negative controls; minimum 6 experiments, representative courses
Experimental: as §3
For peptide and drug transport studies, human organoids were cultivated for 7-9 days after passaging. […]
as §4
For live-cell imaging of intracellular acidification, organoids were incubated with 1μM BCECF-AM (Life Technologies) in HEPES-saline buffer containing 0.01% pluronic F127, 375μM eserine and 2mM […]
substances used were: 50mM Gly-Sar, 50mM Gly-Gly, 5mM Cefadroxil, 40µM CCCP (Sigma), 100µM Amilorid, and 50µM S1611 (Sanofi Aventis). Image series were captured using a Leica […]
and the fluorescence ratio F(λex490nm)/ F(λex450nm) was calculated. Calculations and imaging data analyses were performed using the Leica Application Suite Advanced Fluorescence software. All imaging experiments were performed minimum 6 times and representative time courses are depicted in the manuscript. Imaging of intracellular acidification was performed as indicated in murine small intestinal Wt organoids or in human duodenal organoids.

PEPT1 [4] = target: T2, PEPT1 (Homo sapiens, UniProt P46059); assay: Competition assay using radiolabeled Gly-Sar, human duodenal organoids; conditions: HEPES-saline buffer pH 6.5, 37 °C, liquid scintillation, n = 5–6
T2 sequence (P46059 1-708): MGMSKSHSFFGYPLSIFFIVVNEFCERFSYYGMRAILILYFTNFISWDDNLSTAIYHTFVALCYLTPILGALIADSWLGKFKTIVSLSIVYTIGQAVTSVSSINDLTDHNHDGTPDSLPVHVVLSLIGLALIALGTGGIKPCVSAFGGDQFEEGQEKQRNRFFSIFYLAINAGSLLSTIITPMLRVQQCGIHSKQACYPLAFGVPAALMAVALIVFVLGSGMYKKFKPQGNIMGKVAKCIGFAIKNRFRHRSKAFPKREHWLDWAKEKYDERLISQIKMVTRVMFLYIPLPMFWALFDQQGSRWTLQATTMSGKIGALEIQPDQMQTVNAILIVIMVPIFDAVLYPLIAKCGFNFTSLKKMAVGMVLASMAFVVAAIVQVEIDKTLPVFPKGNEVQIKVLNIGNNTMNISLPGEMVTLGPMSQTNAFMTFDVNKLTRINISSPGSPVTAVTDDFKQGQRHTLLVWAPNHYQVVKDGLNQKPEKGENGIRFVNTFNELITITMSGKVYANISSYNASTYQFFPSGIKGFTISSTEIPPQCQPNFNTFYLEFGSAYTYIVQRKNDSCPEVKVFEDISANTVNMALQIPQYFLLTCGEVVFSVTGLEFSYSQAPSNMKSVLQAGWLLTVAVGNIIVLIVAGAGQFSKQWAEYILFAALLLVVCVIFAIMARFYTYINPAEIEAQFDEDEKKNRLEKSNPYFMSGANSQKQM
Experimental: Intestinal organoids – Transport & Metabolism fructose uptake assay. Inhibitors were added 10min prior to addition of glucose and 30min prior to addition of fructose. Following incubation, substrate/inhibitor solutions were removed from intact organoids embedded in matrigel and matrigel droplets were washed three times with PBS.
Subsequently, matrigel was dissolved by addition of cold PBS and organoids were resuspended and centrifuged (300g, 10min). For “broken up” organoids, dissociated organoids were centrifuged (300g, 3min) and washed three times with PBS. During these steps, PBS for washing contained glucose and fructose, respectively, to avoid excessive transport of substrates out of the cells. Organoid pellets were resuspended in a lysis buffer containing 150mM NaCl, 50 mM Tris-HCl, 1% Igepal CA-630, 0.5% DCA and a protease inhibitor mix, and incubated for 20min on ice. 3 ml of Bioscint® Scintillation solution (National Diagnostics) were added to the cell lysate and radiolabeled substrate taken up by organoids was quantified using a liquid scintillation counter (PerkinElmer). […]
1.7. […]
Transport activity was assessed by competitive inhibition of the uptake of radiolabeled dipeptide glycyl-sarcosin (Gly-Sar), a hydrolysis-resistant model substrate of Pept1. […]
were assessed using (non-labeled) substrates (Gly-Sar) and 14C-radiolabeled substrate tracers (American Radiolabeled Chemicals). […]

[5] = test system: sodium-proton exchangers (NHEs); assay: Live-cell imaging of intracellular pH after Gly-Sar with NHE inhibitors; format: cell-based, mouse; conditions: BCECF-AM, murine small intestinal organoids, 50mM Gly-Sar, 100µM Amilorid or 50µM S1611
Experimental: as §1, §2
centrifuged (300g, 10min). For “broken up” organoids, dissociated organoids were centrifuged (300g, 3min) and washed three times with PBS. […]
as §4, §5, §6, §7

human duodenal organoids [6] = assay: Live-cell imaging of intracellular calcium (Fura-2-AM); format: cell-based; conditions: Fura-2-AM 7μM, ratio F(λex340nm)/F(λex380nm), 100µM ATP
Experimental: (§9) 1.9. Imaging of intracellular calcium concentrations
(§10) Concentrations of substances used were: 100µM ATP (Sigma), 50mM glucose, and 50mM fructose. Using a Leica DMI6000 B inverted […]
(§11) analyzed using the Leica Application Suite Advanced Fluorescence software. Imaging of intracellular calcium concentrations was performed in human duodenal organoids.
(§12) Of note, the B27 supplement contains a n/a […]
(§13) incubated for the indicated times. Controls were not pulsed with insulin. 2. Addition of butyrate: murine colonic organoids were grown for 6 days in IC. 100µM carnitine and 1mM butyrate were added and organoids were incubated for the indicated times. Time point zero was sampled immediately after addition of butyrate and carnitine. Control organoids were not exposed to butyrate. 3. Addition of d13- […]
(§14) organoids were incubated for the indicated times. Controls were exposed to carnitine and BSA without […]
(§15) 5min) to remove remaining matrigel.
(§16) Comfort; Eppendorf, Hamburg, Germany). The samples were dried in nitrogen gas and reconstituted […]
(§17) To determine amino acid and
(§18) Analytics, Zwingen, Switzerland) was used. Data analysis was performed using Analyst 1.7® and SCIEX OS 1.4 software (Sciex).

[7] = test system: murine large intestinal organoids; assay: Acylcarnitine profiles after butyrate (LC-MS/MS); format: cell-based, mouse; conditions: 1mM butyrate with 100µM carnitine, measured 0, 5, 10, 30, 60 min
Experimental: as §9, §10, §11, §12, §13, §14, §15, §16, §17, §18

[8] = test system: murine small intestinal organoids; assay: Amino acid and acylcarnitine levels after insulin (LC-MS/MS); format: cell-based, mouse; conditions: 1 μM insulin, measured after 0, 30, 60, 120 min
Experimental: For live-cell imaging of intracellular calcium concentrations, organoids were loaded with 7μM Fura-2
AM (Life Technologies) in HEPES-saline buffer as used for imaging of intracellular acidification for
20 min at 37 °C and then washed 5 times with PBS (pH 7.4; 37 °C). Concentrations of substances used were: 100µM ATP (Sigma), 50mM glucose, and 50mM fructose. Using a Leica DMI6000 B inverted
fluorescence microscope (Leica Microsystems) at 20× magnification, images were captured every 5-
10s. The fluorescence ratio F(λex340nm)/ F(λex380nm) was calculated and imaging data were
Quantification of amino acid and acylcarnitine concentrations using targeted LC-MS/MS
Metabolite analyses were performed with samples from three different experiments: 1.
incubated for the indicated times. […] Addition of butyrate: murine colonic organoids were grown for 6 days in IC. 100µM carnitine and 1mM butyrate were added and organoids were incubated for the indicated times. […]
palmitate. Medium from untreated organoids was measured to verify organoids as source of […]
acylcarnitine concentrations, quantitative LC -MS/MS was applied as described previously [6, 7]. […]

For `C[C@@H]1NC(=O)[C@H](CC(=O)O)NC(=O)CNC(=O)[C@H](CCCNC(=N)N)NC(=O)[C@@H](C)N(C)C(=O)[C@H](C)N(C)C1=O` [P2], the “peptide transporter-mediated uptake judged by competitive inhibition of radiolabeled Gly-Sar uptake” value (Pept1 [1]) is given as “actively transported independently of Pept1” and the “permeability in Caco-2 assay” value (Caco-2; ref Weinmuller et al., 2017) is given as “lacked permeability”.
For Cilengitide, the half-life of excretion [2] is listed as 4 h and the metabolic stability [2] is listed as “completely stable”.
With glycyl-glycine [Gly-Gly] the intracellular acidification (human duodenal organoids [3]) was “intracellular acidification was demonstrated” and the “competitive inhibition of radiolabeled Gly-Sar uptake” value (PEPT1 [4]; 5mM Gly-Gly versus 5mM Gly-Sar (14C tracer 1mM), intact and broken up human duodenal organoids) was “significant reduction of Gly-Sar uptake in both approaches”.
For `N=C(N)NC(=O)c1nc(Cl)c(N)nc1N` [Amiloride], the “recovery of intracellular pH following exposure to Gly-Sar” value [5] was “prevented the recovery of intracellular pH to basal levels” and the “course of intracellular pH in the observed time span after Gly-Sar” value ([5]; Figures 3G,H) was “continuous influx of protons”.
For `Nc1ncnc2c1ncn2[C@@H]1O[C@H](COP(=O)(O)OP(=O)(O)OP(=O)(O)O)[C@@H](O)[C@H]1O` [ATP], the intracellular calcium response (human duodenal organoids [6]) was “increases in intracellular calcium”.
With `CCCC(=O)O` [butyrate] the “acetylcarnitine, butyrylcarnitine and palmitoylcarnitine concentrations” value [7] was “increasing to maximal concentrations 60 min after butyrate addition”.
In the case of `C[C@@H]1NC(=O)[C@H](C)NC(=O)[C@@H](C)N(C)C(=O)[C@H](C)N(C)C(=O)[C@H](C)NC(=O)[C@H](C)NC1=O` [P3], the “peptide transporter-mediated uptake judged by competitive inhibition of radiolabeled Gly-Sar uptake” value (Pept1 [1]) is listed as “no signs of peptide transporter-mediated uptake”, the “permeability in Caco-2 assay” value (Caco-2; library of N-methylated alanine peptides, ref Ovadia et al., 2011) is listed as “highly permeable” and the “competitive inhibition of radiolabeled Gly-Sar uptake” value (PEPT1 [4]; 13mM cyclic hexapeptide (solubilized in DMSO) versus 5mM Gly-Sar (14C tracer 1mM), human duodenal organoids, Figure 2H) is listed as “significantly reduce radiolabeled Gly-Sar uptake”.
For insulin, the “tau-methylhistidine and propionylcarnitine (C3) after insulin stimulation” value [8] was “diminished with lowest levels observed 60 min after insulin stimulation”.

From PMC7516017, “Organoids to Study Intestinal Nutrient Transport, Drug Uptake and Metabolism – Update to the Human Model and Expansion of Applications” (Frontiers in Bioengineering and Biotechnology, 2020)
